In article PMC3661926 (Acta Neuropathologica, 2013):
Like-named read-outs stand apart in the source and are kept apart here.

What was measured:
[1] = system: prion strains RML, ME7, 301C, sCJD, vCJD; type: biochemical, mouse and human; settings: 1 μl of 10 mM compound solution in DMSO
RML scrapie [2] = type: in vivo, C57BL/6 mice; settings: for Median/Mean* Survival Therapy / difference of survival therapy vs control: C57BL/6, RML i.c., 250 mg/kg
[3] = in vivo
[4] = system: cultured human peripheral lymphocytes
physchem = settings: water
in vivo = settings: C57/BL6, mouse; for half-life: ip, 1 mg
[5] = target: PrP^Sc (RML prion strain) (Mus musculus, UniProt P04925); experiment: biochemical
Chain of PrP^Sc (RML prion strain) (P04925 23-230 limits assumed): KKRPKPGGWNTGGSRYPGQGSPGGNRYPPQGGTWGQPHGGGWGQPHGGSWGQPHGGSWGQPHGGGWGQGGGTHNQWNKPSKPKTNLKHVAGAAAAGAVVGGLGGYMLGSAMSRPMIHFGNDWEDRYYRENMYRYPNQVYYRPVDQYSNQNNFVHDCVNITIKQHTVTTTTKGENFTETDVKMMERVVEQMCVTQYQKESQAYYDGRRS

[6] = mouse, in vivo, 2000 mg/kg
MPTP-treated mice = settings: mouse, in vivo
[7] = C57/BL6, mouse, in vivo
actin = type: biochemical
[8] = system: rotenone-treated C57Bl/6J mice; settings: mouse, in vivo
[9] = system: Salmonella typhimurium strains TA 98, TA 100, TA 102, TA 1535 and TA 1537
[10] = rat, in vivo, 2000 mg/kg
RML scrapie [11] = experiment: whole plant or invertebrate; type: in vivo, C57BL/6 mice
PrP^Sc (vCJD prions) = PrP^Sc (vCJD prions) (Homo sapiens, UniProt P04156); experiment: biochemical

With `Brc1cccc(-c2cc(-c3ccc4c(c3)OCO4)n[nH]2)c1` [anle138b, 3-(1,3-benzodioxol-5-yl)-5-(3-bromophenyl)-1H-pyrazole] the “inhibitory activity in PMCA, all prion strains tested” value [1] was “strong inhibitory activity in all prion strains tested”, the “motor performance in prion infected mice” value (RML scrapie [2]; 160 d.p.i., arena movement tracking) was “unimpaired” and the “Median/Mean* Survival Therapy” value (RML scrapie [2]; 0 dpi oral) was 355 days. The “difference of survival therapy vs control” value (“difference” for short) (RML scrapie [2]; 0 dpi oral) was 175 days, the “Median/Mean* Survival Therapy” value (RML scrapie [2]; 80 dpi oral) was 242 days and the “difference” value (RML scrapie [2]; 80 dpi oral) was 74 days. The “Median/Mean* Survival Therapy” value (RML scrapie [2]; 120 dpi oral) was 224 days, the “difference” value (RML scrapie [2]; 120 dpi oral) was 52 days and the “size distribution of PrP^Sc aggregates (sucrose-gradient centrifugation)” value (RML scrapie [2]; brain homogenates of treated mice, fractions 7–12) was “strong reduction of high molecular weight species”. For the same compound, the “pyknotic nuclei, cerebellar granule cell layer” value (RML scrapie [2]; mouse, in vivo) was “significantly reduced number of pyknotic nuclei”, the “time for which weight loss is prevented” value (RML scrapie [2]; treatment from 80 dpi onwards) was ~ 100 days and the “time for which further weight loss is inhibited” value (RML scrapie [2]; treatment from 120 dpi) was ~ 70 days. The Median survival (RML scrapie [2]; treatment from day 80 post i.c. infection (5 mg daily oral)) was 242,5, the Median survival (RML scrapie [2]; treatment from day 120 post i.c. infection (5 mg daily oral)) was 224,0 and the “metabolites in brain extracts (HPLC, high resolution MS)” value ([3]; C57/BL6, mouse) was “did not identify metabolites of anle138b”. For the same compound, the conc. brain ([3]; mouse, po) was 34.1 nmol/g, the “clastogenic activity, conclusion” value [4] was “no indications of mutagenic properties” and the solubility (physchem) was under 1 µM. The Kp (in vivo) was about 3, the half-life (in vivo; half-life t½ in brain) was 2.9 h and the half-life (in vivo; half-life t½ in serum) was 2.4 h. The EC50 [5] was 7.3 µM, the inhibition at 10 µM ([5]; read-out: % inhibition PrP^Sc PMCA) was 84% and the “acute toxicity, single oral administration” value [6] was “did not reveal any signs of toxicity and no mortality”. The “loss of dopaminergic (TH-positive) neurons in substantia nigra” value (MPTP-treated mice) was “significantly ameliorated”, the “AUC after oral application compared to i.p. application” value [7] was “approximately 50%” and the “effect on actin polymerization” value (actin) was “do not affect actin polymerization”. The “1-h stool collection gut motility test” value [8] was “complete rescue of enteric function”, the “motor performance (Rotarod)” value [8] was “significantly improved motor performance” and the “concentration with test item precipitation” value [9] was at least 100 µg/plate. The “cytotoxicity, preliminary test” value [9] was “No signs of cytotoxicity”, the “mutagenic effect (revertant colony numbers)” value [9] was “No mutagenic effect” and the “acute toxicity, single oral administration” value [10] was “not reveal any signs of toxicity and no mortality”. The “% inhibition PrP^Sc in vivo (c)” value (RML scrapie [11]; PrP^Sc level in brain 106 days after i.c. infection, treatment 24 days: 14 days i.p. 0.84 mg, 2 × 5 days oral gavage 1 mg) was 108%, the “% inhibition PrP^Sc in vivo (b)” value (RML scrapie [11]; PrP^Sc level in spleen 35 days after i.p. infection, 34 days treatment with 1 mg compound oral in peanut butter) was 57% and the “change of PrPSc levels in brain, mixed application scheme” value (RML scrapie [11]; from 80 dpi: 14 days i.p. 0.84 mg, 2 x 5 days gavage 1 mg, measured at 95 and 106 dpi) was “decrease in PrPSc levels”. It also gave an inhibition in vivo at 1 mg (RML scrapie [11]; in Mus musculus, po, 2880 h, read-out: % inhibition PrP^Sc in vivo (a)) of 78% and an EC50 (PrP^Sc (vCJD prions)) of 7.1 µM.
